How the values were obtained:
mouse electroshock = assay: Mouse electroshock test of Swinyard (anticonvulsant); assay type: in vivo
Description: Aside from antithrombogenic and analgesic effects, compounds of Formula I wherein R1 and R2 substituents are halogen (particularly chlorine), R3 is hydrogen or methyl and A is selected from the group consisting of lower alkyl of from 1 to 8 carbon atoms inclusive or cycloalkyl of from 3 to 6 carbon atoms inclusive, are useful as anticonvulsant, hypotensive and antihypertensive agents. […] For example, N-(2,6-dichlorostyryl)acetamidine in the mouse electroshock test of E. A. Swinyard, J. Amer. Pharm.

blood pressure [1] = assay: Blood pressure and heart rate in anesthetized normotensive dog; assay type: in vivo
Procedure: (§1) For instance, at 1.0 mg./kg. body weight, this compound provides a 33% reduction in blood pressure while at 10.0 mg./kg. body weight, a 64% reduction in blood pressure is obtained. In the same test procedure, the prior art cinnamylamidine, N-(4-chlorocinnamyl)acetamidine, provided a 12% increase in blood pressure with a 6% decrease in heart rate at a dose of 1.0 mg./kg. body weight. At a dose of 10.0 mg./kg. body weight, the prior art cinnamylamidine provides an increase of 26% in blood pressure.

blood pressure [2] = assay: Blood pressure in spontaneous hypertensive rat; assay type: in vivo
Procedure: as §1

urine output = assay: Lipschitz diuretic test; assay type: in vivo
Description: N-(2,6-dichlorostyryl)acetamidine is orally effective as a diuretic agent according to the W. L. Lipschitz, et al., J. Pharmacol. Expt.

[3] = as reported in U.S. Pat. No. 3,413,345; cited from earlier work
[4] = tested on: phenylquinone writhing syndrome; assay: Phenylquinone writhing test (analgesic activity); assay type: in vivo; conditions: mice
Procedure: In this test, groups of 10-20 mice are injected subcutaneously or orally with different doses of the test compound. At predetermined time intervals, the mice receive 2.5 mg./kg. phenylquinone intraperitoneally. The total number of writhing episodes is counted for each mouse for 10 min. and the average percent decrease in writhing recorded for each dose.
The novel styrylsulfonylamidines of Formula V in addition to being useful as precursors to the styrylamidine products of Formula I have analgesic utility as measured in the foregoing phenylquinone writhing test. A preferred class of styrylsulfonylamidines of Formula V having particularly significant analgesic activity are those wherein R1 and R2 are each hydrogen, nitro or halogen and A is phenyl or lower alkyl of from 1 to 8 carbon atoms inclusive. Analgesic activity at the time interval indicated following administration of compounds representative of this class are given in Table I below.

CNS = CNS effects after oral or intraperitoneal administration to the mouse; assay type: in vivo
Procedure: 5,6-Dihydro-4-methyl-5-(4-nitrophenyl)-3-phenyl-4H-1,2,4-thiadiazine 1,1-dioxide was not effective in preventing the phenylquinone writhing syndrome in mice at an oral dose of 100 mg./kg. body weight or subcutaneous dose of 6 mg./kg. body weight.

## CC(=N)NCC=Cc1ccc(Cl)cc1 [N-(4-chlorocinnamyl)acetamidine, reference compound]
Mouse electroshock; 250 mg./kg. body weight
  Activity in mouse electroshock test: completely inactive
Blood pressure [1]; 1.0 mg./kg.
  Decrease in heart rate: 6%
  Increase in blood pressure: 12%
Blood pressure [1]; 10.0 mg./kg.
  Increase in blood pressure: 26%
Blood pressure [2]; 50 mg./kg.
  Antihypertensive effect: devoid of antihypertensive effects
  Change in blood pressure: slight increase in blood pressure
Urine output; oral dose 30 mg./kg. body weight
  Diuretic activity: essentially inactive
[3]
  Hypotensive effect: hypotensive effects which are quick in onset and of considerable duration

## CC(=N)N/C=C/c1c(Cl)cccc1Cl [N-(2,6-dichlorostyryl)acetamidine]
Mouse electroshock; oral
  ED50: 44 mg/kg
Blood pressure [1]; intravenous 1.0 mg./kg.
  Reduction in blood pressure: 33%
Blood pressure [1]; intravenous 10.0 mg./kg.
  Reduction in blood pressure: 64%
Blood pressure [1]; intravenous 0.01 to 10 mg./kg.
  Reduction in blood pressure: dose related reduction in blood pressure
Blood pressure [2]; oral 5 to 50.0 mg./kg.
  Reduction of blood pressure: substantial reduction of blood pressure
Urine output; oral, 12.5 mg./kg. body weight
  Urine output: doubled the urine output

## CN1C(c2ccccc2)=NS(=O)(=O)CC1c1ccc([N+](=O)[O-])cc1 (centres unmarked) [5,6-dihydro-4-methyl-5-(4-nitrophenyl)-3-phenyl-4H-1,2,4-thiadiazine 1,1-dioxide]
[4]; oral dose 100 mg./kg. body weight
  Prevention of the phenylquinone writhing syndrome: not effective
[4]; subcutaneous dose 6 mg./kg. body weight
  Prevention of the phenylquinone writhing syndrome: not effective
CNS
  CNS effect: non-specific CNS depression

From patent US4052455A, “Styrylamidines” (Mead Johnson & Company, priority 1975, dated 1977)
